The values that follow come from patent USRE40033E1, “Process for preparing 2-methyl-thieno-benzodiazepine” (Eli Lilly and Company, priority 1991, dated 2008).

The subject of one data set is dogs. Kind of data set: Dog toxicity studies, cholesterol levels. Conditions: dosage of 8 mg/kg stated for the 2-ethyl compound. It is filed as in vivo.
In data set [1] the test system is mice. Kind of data set: Apomorphine-induced climbing behaviour. It is filed as in vivo.
Data set [2] deals with mice. Kind of data set: Apomorphine-induced hypothermia. It is filed as in vivo.
Data set [3] relates to rats. Kind of data set: Conditioned avoidance response. It is filed as in vivo. Conditions: Rattus norvegicus, read-out: ED50, inhibition of conditioned avoidance response.
Another data set has as its system D-1 and D-2 receptors. The data set can be described thus: Prevention of EEDQ disruption of the apomorphine-induced climbing response. It counts as in vivo. Conditions: 24 hour pretreatment with EEDQ.
Data set [4] relates to rats. Kind of data set: Multiple conflict schedule (Geller and Seifter). It counts as in vivo. Conditions: dosed orally 60 minutes before testing. The source says: Moore, Nicholas A. et al., The Journal of Pharmacology and Experimental Therapeutics. 545-551, 262:2 (1992). The test measures characteristic changes in rates of responding associated with anxiolytic agents. The conflict procedure results are indicative of favorable anxiolytic activity.
The conflict procedure used was based on the method of Geller and Seifter, Psychopharmacologia 1: 482-492, (1960). Rats were trained on a multiple schedule consisting of three components. Individual components were as follows: 1) for 9 minutes, lever pressing was reinforced on a variable interval 30 second schedule (VI 30, reward). This period was signaled by illumination of the houselight alone. 2) During the following 3-minute period, lever presses were recorded but had no programmed consequence (time-out). 3) Lever pressing was reinforced according to a fixed ratio 10 second food presentation (FR10) for 3 minutes; however, each reinforced response was accompanied by an electric current (0.5 mA) being applied to the grid floor for 500 msec (conflict). This component was signaled by illumination of the houselight and three cue lights on the front panel. This sequence of three components (reward/time-out/conflict) was presented twice in the same order during the daily 30 minute session.
After the training procedure, drug testing was initiated. […]

The target of the next data set is T1, 5-HT-1C receptor (Homo sapiens, UniProt P28335).
T1 sequence (P28335 33-458): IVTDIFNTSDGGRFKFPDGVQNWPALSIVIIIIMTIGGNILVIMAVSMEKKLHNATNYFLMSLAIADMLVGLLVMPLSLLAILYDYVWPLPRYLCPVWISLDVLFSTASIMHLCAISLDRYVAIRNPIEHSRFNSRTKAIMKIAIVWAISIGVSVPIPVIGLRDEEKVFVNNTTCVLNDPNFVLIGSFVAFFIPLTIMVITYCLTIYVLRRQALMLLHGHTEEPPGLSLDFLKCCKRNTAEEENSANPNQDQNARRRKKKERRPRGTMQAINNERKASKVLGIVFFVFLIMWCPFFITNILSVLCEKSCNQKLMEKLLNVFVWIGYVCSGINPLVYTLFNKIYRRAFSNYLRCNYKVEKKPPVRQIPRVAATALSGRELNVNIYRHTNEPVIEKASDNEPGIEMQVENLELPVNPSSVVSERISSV
The data set can be described thus: Activity at the 5-HT-1C receptor. It counts as binding.

Data set [5] can be described thus: Studies using radiolabelled compound, saliva residues. It is filed as in vivo. The protocol:
For example, in the treatment of adult humans, dosages of from 0.25 to 30 mg, preferably from 1 to 20 mg, per day may be used. A once a day dosage is normally sufficient, although divided doses may be administered. For treatment of psychotic disorders a dose range of from 1 to 20 mg, preferably 2.5 to 15 mg per day is suitable, whereas for mild anxiety states a lower dosage range, such as from 0.25 to 5 mg, preferably 1 to 5 mg, may be more appropriate. In choosing a suitable regimen for patients suffering from psychotic illness it may frequently be necessary to begin with a dosage of from 1 to 20 mg per day and when the illness is under control to reduce to a dosage as low as 1 mg per day.

The test system of data set [6] is noradrenergic α-receptors. Kind of data set: Pharmacological tests, noradrenergic α-receptors. The source says: These properties indicate that the compound is a potential neuroleptic with relaxant, anxiolytic and anti-emetic properties, and may be useful in treating psychotic conditions such as, but not limited to, schizophrenia, schizophreniform diseases and mania. At lower doses the compound is indicated for use in the treatment of mild anxiety states.

Data set [7] relates to patients. Conditions: compared with flumezapine.
The test system of data set [8] is patients. Conditions: cited from earlier work.
In data set [9] the test system is psychiatric patients suffering from schizophrenia. Kind of data set: Clinical trial of flumezapine in psychiatric patients suffering from schizophrenia. It counts as in vivo, human. The source says: The lead compound from this group, flumezapine, (7-fluoro-2-methyl-10-(4-methyl-1-piperazinyl)-4H-thieno[2,3-b][1,5]-benzodiazepine), was developed to the stage of being clinically administered to psychiatric patients suffering from schizophrenia. A total of 17 patients received treatment with flumezapine before the clinical trial was terminated after consultation with the U.S. Food and Drug Administration, because of an unacceptably high incidence of raised enzyme levels in the treated patients. […] In respect of its tendency to raise liver enzyme levels, flumezapine is similar to chlorpromazine, an antipsychotic which has long been in use but whose safety has been called into question.

What is called ED50 is the midpoint of the dose-response relation.

Take `Cc1cc2c(s1)Nc1ccccc1N=C2N1CCN(C)CC1`: the “rise in cholesterol levels” value in the data set with dogs is on record as “did not show any rise in cholesterol levels”. In the data set with mice [1], the “dose antagonizing apomorphine-induced climbing behaviour” value is “less than 10 mg/kg”. Also, the “dose antagonizing apomorphine-induced hypothermia” value with mice [2] is “less than 10 mg/kg”. Also, in the data set with rats [3], the ED50 was in the range of 4 to 7 mg/kg. Further, the “active dose, prevention of disruption of climbing response by EEDQ” value in the data set on D-1 and D-2 receptors is “less than 10 mg/kg”. Further, the “active dose in multiple conflict schedule” value with rats [4] is “less than 5 mg/kg”. In addition, the “activity at the 5-HT-1C receptor” value at 5-HT-1C receptor is recorded as “active”. Besides, the residues in saliva result in data set [5] is recorded as “residues have been detected in the saliva”. Also, the “activity at noradrenergic α-receptors” value in [6] is given as “antagonist activity”. Further, the “plasma levels of creatinine phosphokinase (CPK)” value in the data set on patients [7] was “lower than with flumezapine”.
For `CCc1cc2c(s1)Nc1ccccc1N=C2N1CCN(C)CC1` [2-ethyl-4-(4-methyl-1-piperazinyl)-10H-thieno[2,3-b][1,5]benzodiazepine, reference compound], the “rise in cholesterol levels” value in the data set on dogs is given as “four out of eight dogs showed a significant rise in cholesterol levels”.
Regarding `CN1CCN(C2=Nc3cc(Cl)ccc3Nc3ccccc32)CC1` [clozapine], in the data set with patients [8], the “reported clinical side effects” value is given as “cause agranulocytosis in some patients”.
Take `Cc1cc2c(s1)Nc1ccc(F)cc1N=C2N1CCN(C)CC1` [flumezapine, 7-fluoro-2-methyl-10-(4-methyl-1-piperazinyl)-4H-thieno[2,3-b][1,5]-benzodiazepine]: in data set [9] (17 patients treated, trial terminated), the “enzyme levels CPK, SGOT and SGPT in blood samples” value is “in substantial excess of normal values”. The “emergence of extrapyramidal side effects as measured on the AIMS scale” value in data set [9] (clinical trials) is listed as “two of the patients showed the emergence of extrapyramidal side effects”.
`O=C(CCCN1CCC(O)(c2ccc(Cl)cc2)CC1)c1ccc(F)cc1` [haloperidol]: in the data set with patients [8], the “reported clinical side effects” value is reported as “high incidence of extrapyramidal symptoms”.
